Measured values from patent US9814739B2, “2′-ethynyl nucleoside derivatives for treatment of viral infections” (priority 2012, dated 2017).
pEC50, pIC50: −log10 of the molar value. Like-named read-outs stand apart in the source and are kept apart here.

What was measured:
Dengue virus = assay: Dengue assay on cryopreserved PBMC cells (plaque reduction readout on BHK cells); assay type: cell-based; conditions: human PBMC cells
Description: Cryopreserved human PBMC cells were purchased from approved vendors. It was then thawed according to manufacturer's instructions and suspended in RPMI medium supplemented with 1% penicillin/streptomycin solution and 10% Fetal Calf serum. The cells were then counted and viability checked (viability should be at least 70%). After centrifuging and removing the media, the cells were diluted to 1×10^7 cells/mL in RPMI medium supplemented with 1% penicillin/streptomycin. 50 μl of the cells were then dispensed into 96-well tissue culture plate constituting 5×10^5 cells/well. Next, virus with humanized 4G2 mixture was prepared for infection. Briefly, virus (2×10^7 pfu/ml) was mixed with humanized 4G2 antibody with the final antibody concentration of 0.38 μg/ml and incubated for 30 minutes at 4° C. to assist virus/antibody complex formation. The virus-antibody complex was then added to the PBMC at multiplicity of infection (M.O.I) of 0.5. The resulting media was then and further incubated the plates at 37° C. in the humidified incubator for infection to take place. Serial diluted compounds were then added and finally media was added such that the final media volume was 200 μl with 2% Fetal Calf Serum. The plates were then incubated at 37° C., 5% CO2 for another 48 hours. The extent of the infection and compound inhibition was measured by plaque reduction assay using BHK cells. Briefly, BHK cells grown in 24-well tissue culture were subjected to supernatants derived from infection containing serial diluted compounds. After additional 4 days, the monolayer of BHK cells were fixed, stained with crystal violet stain and plaques counted. Dose response curves were plotted from the mean absorbance (n=3) versus the log of the concentration of test compounds. The EC50 is calculated by nonlinear regression analysis. A positive control (7-deaza-2′-C-acetylene-adenosine) was used to ensure the quality of the data.

[1] = 4 day CCK-8 cytotoxicity assay using THP-1 cells; assay type: cell-based; conditions: human, read-out: Dengue CC50 (THP-1)
Description: 3) Protocols for Automated 4 Days CCK8 (Dojindo) Cytotoxicity Assay in HepG2 and THP-1 Cells • 1. 25 μL of HepG2 suspension containing 1.6×10^4 cells/ml (400 cells/well) or 25 μL of THP-1 suspension containing 8×10^4 cells/ml (2000 cells/well) was dispensed into a clear 384-well plate by GNF dispenser 2B vertical-head. • 2. The plate was pre-incubated for 24 h in the GNF incubator (humidified, 37° C., 5% CO2). • 3. Serial-diluted compound were directly transferred into the culture media in the plate (200× dilution). • 4. Plates were incubated for 96 hours in the GNF incubator. • 5. CCK-8 was thawed on the bench-top, and was pre-diluted with media (2.5× dilutions). • 6. 35 μL of 2.5× diluted CCK8 was added to each well of the plate by GNF dispenser 1C angled-head. • 7. The plates were incubated for 3 hours in the incubator. • 8. The absorbance at 450 nm was measured by Envision. Dengue Assay on Cryopreserved PBMC Cells
THP-1 cells grown in suspension were counted and diluted to 8×10^4 cells/ml in RPMI-1640 media supplemented with 10% fetal bovine serum and 1% penicillin/streptomycin. 25 ul of the THP-1 containing media consisting of 2000 cells were dispensed in 384-well tissue culture plate and pre-incubated at room temperature for 30 minutes, followed by 37° C., 5% CO2 overnight in the humidified incubator. On the next day, serial-diluted compound plates were prepared and 125 nl of compounds at various concentrations were then dispensed into the tissue culture well (200× dilution). The plates were then transferred to 37° C., 5% CO2 humidified incubator for additional 96 hours. Cytotoxicity was measured by CCK-8 assay. Briefly, CCK-8 was thawed on bench top and diluted 2.5× with the growth media. 35 ul of the pre-diluted CCK-8 was then introduced into each well and the plates were then further incubated in 37° C., 5% CO2 humidified incubator for 3 hours. The absorbance was read by Envision at 450 nm. Dose response curves were plotted from the mean absorbance (n=2) versus the log of the concentration of test compounds. The EC50 is calculated by nonlinear regression analysis. A positive control (puromycin) was used to ensure the quality of the data.

[2] = tested on: GT1b HCV luciferase replicon; assay: HCV replicon antiviral EC50 assay; assay type: cell-based, Hepatitis C virus; conditions: for EC50: Hepatitis C virus, GT1B, 72 h, read-out: HCV GT1b EC50 (uM)
[3] = tested on: Replicon cells, expressing the GT1b HCV luciferase replicon
in vitro = conditions: HCV GT1b CC50 (uM)
Dengue polymerase [4] = target: T1, Dengue polymerase (Dengue virus type 2, UniProt P29990); assay: biochemical; conditions: Elongation
T1 sequence (P29990 2492-3391 limits assumed): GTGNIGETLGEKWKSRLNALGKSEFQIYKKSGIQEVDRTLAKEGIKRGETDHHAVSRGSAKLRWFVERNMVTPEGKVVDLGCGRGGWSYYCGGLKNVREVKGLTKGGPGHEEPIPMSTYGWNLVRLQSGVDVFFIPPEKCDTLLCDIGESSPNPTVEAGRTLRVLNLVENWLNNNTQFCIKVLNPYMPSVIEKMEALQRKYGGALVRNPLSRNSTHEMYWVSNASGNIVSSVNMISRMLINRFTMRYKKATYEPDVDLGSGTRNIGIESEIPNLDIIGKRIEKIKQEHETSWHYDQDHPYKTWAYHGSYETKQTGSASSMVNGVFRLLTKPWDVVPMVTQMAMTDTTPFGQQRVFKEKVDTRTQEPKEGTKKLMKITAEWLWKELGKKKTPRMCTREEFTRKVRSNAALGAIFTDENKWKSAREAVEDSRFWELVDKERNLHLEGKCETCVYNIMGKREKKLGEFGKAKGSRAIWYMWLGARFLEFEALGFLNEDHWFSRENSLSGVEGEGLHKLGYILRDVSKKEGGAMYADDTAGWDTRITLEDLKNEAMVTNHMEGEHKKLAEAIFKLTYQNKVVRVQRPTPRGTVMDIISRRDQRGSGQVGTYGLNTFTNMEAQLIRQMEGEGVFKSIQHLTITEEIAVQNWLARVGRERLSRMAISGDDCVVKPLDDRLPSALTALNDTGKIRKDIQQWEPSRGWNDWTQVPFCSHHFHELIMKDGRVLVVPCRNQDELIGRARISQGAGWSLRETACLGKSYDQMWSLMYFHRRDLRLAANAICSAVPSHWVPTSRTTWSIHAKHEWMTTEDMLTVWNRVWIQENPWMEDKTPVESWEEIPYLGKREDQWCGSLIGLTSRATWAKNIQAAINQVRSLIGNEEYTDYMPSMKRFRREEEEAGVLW

Dengue polymerase [5] = target: T1, Dengue polymerase; assay: biochemical; conditions: De novo
HCV polymerase = HCV polymerase (Hepatitis C virus genotype 1b, UniProt Q9WMX2); assay: biochemical
Chain of HCV polymerase (Q9WMX2 2420-3010 limits assumed): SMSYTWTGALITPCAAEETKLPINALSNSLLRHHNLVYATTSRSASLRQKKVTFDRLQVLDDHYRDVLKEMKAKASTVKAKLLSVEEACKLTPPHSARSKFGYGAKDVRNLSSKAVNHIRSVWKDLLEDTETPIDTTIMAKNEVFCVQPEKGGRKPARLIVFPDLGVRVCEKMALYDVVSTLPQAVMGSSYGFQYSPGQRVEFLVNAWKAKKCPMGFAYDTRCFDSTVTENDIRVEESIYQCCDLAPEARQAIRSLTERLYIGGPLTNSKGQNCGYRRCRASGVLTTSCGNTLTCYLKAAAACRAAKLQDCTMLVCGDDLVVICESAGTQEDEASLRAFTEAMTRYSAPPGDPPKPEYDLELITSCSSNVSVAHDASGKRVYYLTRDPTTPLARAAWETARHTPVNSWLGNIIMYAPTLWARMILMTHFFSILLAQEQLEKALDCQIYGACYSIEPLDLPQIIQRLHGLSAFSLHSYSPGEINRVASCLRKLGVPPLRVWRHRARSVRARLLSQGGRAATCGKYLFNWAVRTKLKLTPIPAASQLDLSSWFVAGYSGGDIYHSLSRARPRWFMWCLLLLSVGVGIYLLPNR

For `C#C[C@@]1(O)[C@H](O)[C@@H](CO[P@@](=O)(N[C@@H](C)C(=O)OC(C)C)Oc2ccccc2)O[C@H]1n1ccc(=O)[nH]c1=O` (single isomer, unassigned) [Example 1], the pEC50 (Dengue virus; Dengue virus, PBMC, 48 h) was 6.40, the pEC50 (Dengue virus; 48 hours) was 6.64 and the CC50 at 96 h [1] was > 50000 nM. The EC50 [2] was 0.066 µM, the pEC50 ([2]; read-out: HCV GT1b EC50) was 7.01 and the CC50 [3] was > 20000 nM. The CC50 (in vitro) was > 25 µM.

For `CC#C[C@@]1(O)[C@H](O)[C@@H](COP(=O)(N[C@@H](C)C(=O)OC(C)C)Oc2ccccc2)O[C@H]1n1ccc(=O)[nH]c1=O` (stereo partly drawn) [Example 1.1, (2S)-isopropyl 2-(((((2R,3R,4R,5R)-5-(2,4-dioxo-3,4-dihydropyrimidin-1(2H)-yl)-3,4-dihydroxy-4-(prop-1-yn-1-yl)tetrahydrofuran-2-yl)methoxy)(phenoxy)phosphoryl)amino)propanoate], the pEC50 (Dengue virus; Dengue virus, PBMC, 48 h) was 6.01, the CC50 at 96 h [1] was 48000 nM and the EC50 [2] was 0.243 µM. For the same compound, the CC50 (in vitro) was > 25 µM.

Work on `C#C[C@@]1(O)[C@H](O)[C@@H](COP(=O)(N[C@@H](C)C(=O)O[C@H](C)CC)Oc2ccc(Cl)cc2)O[C@H]1n1ccc(=O)[nH]c1=O` (stereo partly drawn) [Example 1.3, (2S)-(R)-sec-butyl 2-(((4-chlorophenoxy)(((2R,3R,4R,5R)-5-(2,4-dioxo-3,4-dihydropyrimidin-1(2H)-yl)-4-ethynyl-3,4-dihydroxytetrahydrofuran-2-yl)methoxy)phosphoryl)amino)propanoate] yielded a pEC50 (Dengue virus; Dengue virus, PBMC, 48 h) of 7.22, a CC50 at 96 h [1] of 16000 nM and an EC50 [2] of 0.095 µM. For the same compound, the CC50 (in vitro) was > 25 µM.

With `C#C[C@@]1(O)[C@H](O)[C@@H](COP(=O)(N[C@@H](C)C(=O)OC(CC)CC)Oc2ccc(Cl)cc2)O[C@H]1n1ccc(=O)[nH]c1=O` (stereo partly drawn) [Example 1.4, (2S)-pentan-3-yl 2-(((4-chlorophenoxy)(((2R,3R,4R,5R)-5-(2,4-dioxo-3,4-dihydropyrimidin-1(2H)-yl)-4-ethynyl-3,4-dihydroxytetrahydrofuran-2-yl)methoxy)phosphoryl)amino)propanoate] the pEC50 (Dengue virus; Dengue virus, PBMC, 48 h) was 7.22, the CC50 at 96 h [1] was > 50000 nM and the EC50 [2] was 0.087 µM. The CC50 (in vitro) was > 25 µM.

`C#C[C@@]1(O)[C@H](O)[C@@H](COP(=O)(N[C@@H](C)C(=O)OCc2ccccc2)Oc2ccc(Cl)cc2)O[C@H]1n1ccc(=O)[nH]c1=O` (stereo partly drawn) [Example 1.5, (2S)-benzyl 2-(((4-chlorophenoxy)(((2R,3R,4R,5R)-5-(2,4-dioxo-3,4-dihydropyrimidin-1(2H)-yl)-4-ethynyl-3,4-dihydroxytetrahydrofuran-2-yl)methoxy)phosphoryl)amino)propanoate] gave a pEC50 (Dengue virus; Dengue virus, PBMC, 48 h) of 7.22, a CC50 at 96 h [1] of 8300 nM and an EC50 [2] of 0.131 µM. The CC50 (in vitro) was > 25 µM.

In the case of `C#C[C@@]1(O)[C@H](O)[C@@H](COP(=O)(NCC(=O)OC(C)C)Oc2ccc(Cl)cc2)O[C@H]1n1ccc(=O)[nH]c1=O` (stereo partly drawn) [Example 1.6, isopropyl 2-(((4-chlorophenoxy)(((2R,3R,4R,5R)-5-(2,4-dioxo-3,4-dihydropyrimidin-1(2H)-yl)-4-ethynyl-3,4-dihydroxytetrahydrofuran-2-yl)methoxy)phosphoryl)amino)acetate], the pEC50 (Dengue virus; Dengue virus, PBMC, 48 h) was 6.77, the CC50 at 96 h [1] was > 50000 nM and the EC50 [2] was 0.152 µM. For the same compound, the CC50 (in vitro) was > 25 µM.

In the case of `C#C[C@@]1(O)[C@H](O)[C@@H](COP(=O)(N[C@@H](C)C(=O)OC2CCCCC2)Oc2ccc(Cl)cc2)O[C@H]1n1ccc(=O)[nH]c1=O` (stereo partly drawn) [Example 1.7, (2S)-cyclohexyl 2-(((4-chlorophenoxy)(((2R,3R,4R,5R)-5-(2,4-dioxo-3,4-dihydropyrimidin-1(2H)-yl)-4-ethynyl-3,4-dihydroxytetrahydrofuran-2-yl)methoxy)phosphoryl)amino)propanoate], the pEC50 (Dengue virus; Dengue virus, PBMC, 48 h) was 6.77, the CC50 at 96 h [1] was 13000 nM and the EC50 [2] was 0.087 µM. For the same compound, the CC50 (in vitro) was > 25 µM.

With `C#C[C@@]1(O)[C@H](O)[C@@H](COP(=O)(O)OP(=O)(O)OP(=O)(O)O)O[C@H]1n1ccc(=O)[nH]c1=O` [Example 1.8, ((2R,3R,4R,5R)-5-(2,4-dioxo-3,4-dihydropyrimidin-1(2H)-yl)-4-ethynyl-3,4-dihydroxytetrahydrofuran-2-yl)methyl tetrahydrogen triphosphate] the pIC50 (Dengue polymerase [4]) was 5.92, the pIC50 (Dengue polymerase [5]) was 5.54 and the pIC50 (HCV polymerase) was 5.08.

Work on `CC#C[C@@]1(O)[C@H](O)[C@@H](COP(=O)(O)OP(=O)(O)OP(=O)(O)O)O[C@H]1n1ccc(=O)[nH]c1=O` [Example 1.9, ((2R,3R,4R,5R)-5-(2,4-dioxo-3,4-dihydropyrimidin-1(2H)-yl)-3,4-dihydroxy-4-(prop-1-yn-1-yl)tetrahydrofuran-2-yl)methyl tetrahydrogen triphosphate] yielded a pIC50 (Dengue polymerase [4]) of 5.68 and a pIC50 (Dengue polymerase [5]) of 5.47.
